Reference: ChEMBL document CHEMBL1147011, “Antimalarial effect of bis-pyridinium salts, N,N'-hexamethylenebis(4-carbamoyl-1-alkylpyridinium bromide)” (Bioorg Med Chem Lett, 2006)
pEC50: −log10 of the molar value.

Experiments:
Plasmodium falciparum = experiment: Antimalarial activity against chloroquine-sensitive Plasmodium falciparum FCR3; format: functional, organism-based
FM3A [1] = experiment: Cytotoxicity against mouse FM3A cell line; format: functional, cell-based
FM3A [2] = experiment: Selectivity ratio of EC50s against Plasmodium falciparum FCR3 to mice (Mus musculus) FM3A cells; format: functional

SMILES	pEC50 (Plasmodium falciparum)	pEC50 (FM3A [1])	Ratio EC50 (FM3A [2])
CCCCCCCC[n+]1ccc(C(=O)NCCCCCCNC(=O)c2cc[n+](CCCCCCCC)cc2)cc1.[Br-].[Br-]	8.00	5.24	580
CCCCCCCCCC[n+]1ccc(C(=O)NCCCCCCNC(=O)c2cc[n+](CCCCCCCCCC)cc2)cc1.[Br-].[Br-]	7.40	6.35	11
CCCCCC[n+]1ccc(C(=O)NCCCCCCNC(=O)c2cc[n+](CCCCCC)cc2)cc1.[Br-].[Br-]	7.28	< 4.76	>333
CCCCCCCCCCCC[n+]1ccc(C(=O)NCCCCCCNC(=O)c2cc[n+](CCCCCCCCCCCC)cc2)cc1.[Br-].[Br-]	6.89	6.38	3
CCCCCCCCCCCCCC[n+]1ccc(C(=O)NCCCCCCNC(=O)c2cc[n+](CCCCCCCCCCCCCC)cc2)cc1.[Br-].[Br-]	5.96	5.55	3
CCCCCCCCCCCCCCCC[n+]1ccc(C(=O)NCCCCCCNC(=O)c2cc[n+](CCCCCCCCCCCCCCCC)cc2)cc1	5.46	5.66	–
CCN(CC)CCCC(C)Nc1ccnc2cc(Cl)ccc12 (centres undefined) [CHLOROQUINE]	–	–	1800
C=C[C@H]1CN2CC[C@H]1C[C@H]2[C@H](O)c1ccnc2ccc(OC)cc12 [QUININE]	–	–	910
